US10023566B2, “Dasatinib salts” (EGIS GYOGYSZERGYAR ZRT, priority 2014, dated 2018)
Where a name gives a salt, the structure may show the parent alone.

Columns and labels:
[1] = Determination of the solubility of dasatinib salts (shake flask 37° C., HPLC); assay type: physicochemical; conditions: 6 hour shaking, 18 hour sedimentation
Procedure: Considering the above mentioned facts our solubility measurements were carried out on three different pH values (pH 1, pH 4.5 and pH 6.8).
Determination of the Solubility of Dasatinib Salts (Measurement Conditions)
Preparation of Sample Mixture:
• 100 mg of dasatinib salt are weighed in a 20 ml Erlenmeyer flask whereupon 10 ml of medium are added and it is shaked for 6 hours at a temperature of 37° C. on 100 rpm. After sedimentation for 18 hours at a temperature of 37° C. the settled solution is filtered through a sieve with 0.45 μm pores and the solution is diluted up to 20 ml with medium.

[2] = Storage stability test: quantity of impurities by HPLC and change thereof; assay type: physicochemical; conditions: for stability in the storage tests (in words): storage tests carried out under various conditions, thermal stress and forced stability tests
Description: In course of the thermal stress test and the forced stability test the decompositions in a pharmaceutical composition occurring during storage are constructed essentially in an accelerated manner. […] The advantageous properties of the new dasatinib salts of the present invention are significant from the point of view of the formulation of pharmaceutical compositions, the storage and the minimization of the harmful effects exerted in the human body.
The stability of the new dasatinib salts of the present invention were subjected to detailed tests.
Our results regarding the quantity of the impurities and change thereof are shown in the tables below (expressed in percentage).
Measuring conditions are the same as the determination of purity profile below.
Determination of the Impurities of Dasatinib Salts by HPLC (Measurement Conditions)

[3] = 3 week, 40° C./70% RH, listed as Anhydrous dasatinib p-toluenesulfonic acid (1:1) salt Form I

Compound: Cc1nc(Nc2ncc(C(=O)Nc3c(C)cccc3Cl)s2)cc(N2CCN(CCO)CC2)n1 [Dasatinib monohydrate, N-(2-Chloro-6-methylphenyl)-2-[6-[4-(2-hydroxyethyl)piperazin-1-yl]-2-methylpyrimidin-4-ylamino]-1,3-thiazole-5-carboxamide, reference compound]
- solubility ([1]; 0.1M HCl (pH 1)): 5757 µg/mL
- solubility ([1]; pH = 4.5 phosphate buffer): 555 µg/mL
- solubility ([1]; pH = 6.8 phosphate buffer): 156 µg/mL
- Impurity Dasatinib N-oxyde (RT 12.2-12.4) ([2]; 3 week, 25° C./90% RH): 0.03%
- Impurity Dasatinib imp 2 (RT 5.2) ([2]; 3 week, 25° C./90% RH): 0.11%
- Impurity Dasatinib imp 3 (RT 18.9) ([2]; 3 week, 25° C./90% RH): 0.04%
- Impurity Deshydroxyethyl dasatinib (RT 11.0) ([2]; 3 week, 25° C./90% RH): 0.12%
- Impurity Ethylene-diamine intermedier (RT 9.0-9.3) ([2]; 3 week, 25° C./90% RH): 0.06%
- Impurity Summary (%) ([2]; 3 week, 25° C./90% RH): 0.43%
- Impurity, unnamed, RT 20.3 ([2]; 3 week, 25° C./90% RH): 0.07%
- Impurity Dasatinib N-oxyde (RT 12.2-12.4) ([2]; 3 week, 40° C./70% RH): 0.03%
- Impurity Dasatinib imp 2 (RT 5.2) ([2]; 3 week, 40° C./70% RH): 0.10%
- Impurity Dasatinib imp 3 (RT 18.9) ([2]; 3 week, 40° C./70% RH): 0.03%
- Impurity Deshydroxyethyl dasatinib (RT 11.0) ([2]; 3 week, 40° C./70% RH): 0.12%
- Impurity Ethylene-diamine intermedier (RT 9.0-9.3) ([2]; 3 week, 40° C./70% RH): 0.08%
- Impurity Summary (%) ([2]; 3 week, 40° C./70% RH): 0.43%
- Impurity, unnamed, RT 20.3 ([2]; 3 week, 40° C./70% RH): 0.07%
- Impurity Dasatinib imp 2 (RT 5.2) ([2]; 6 week, 25° C./90% RH): 0.10%
- Impurity Dasatinib imp 3 (RT 18.9) ([2]; 6 week, 25° C./90% RH): 0.04%
- Impurity Deshydroxyethyl dasatinib (RT 11.0) ([2]; 6 week, 25° C./90% RH): 0.12%
- Impurity Ethylene-diamine intermedier (RT 9.0-9.3) ([2]; 6 week, 25° C./90% RH): 0.03%
- Impurity Summary (%) ([2]; 6 week, 25° C./90% RH): 0.39%
- Impurity, unnamed, RT 19.6 ([2]; 6 week, 25° C./90% RH): 0.02%
- Impurity, unnamed, RT 20.3 ([2]; 6 week, 25° C./90% RH): 0.08%
- Impurity Dasatinib N-oxyde (RT 12.2-12.4) ([2]; 6 week, 40° C./70% RH): 0.02%
- Impurity Dasatinib imp 2 (RT 5.2) ([2]; 6 week, 40° C./70% RH): 0.11%
- Impurity Dasatinib imp 3 (RT 18.9) ([2]; 6 week, 40° C./70% RH): 0.04%
- Impurity Deshydroxyethyl dasatinib (RT 11.0) ([2]; 6 week, 40° C./70% RH): 0.12%
- Impurity Ethylene-diamine intermedier (RT 9.0-9.3) ([2]; 6 week, 40° C./70% RH): 0.03%
- Impurity Summary (%) ([2]; 6 week, 40° C./70% RH): 0.41%
- Impurity, unnamed, RT 19.6 ([2]; 6 week, 40° C./70% RH): 0.02%
- Impurity, unnamed, RT 20.3 ([2]; 6 week, 40° C./70% RH): 0.07%
- Impurity Dasatinib N-oxyde (RT 12.2-12.4) ([2]; starting sample): 0.02%
- Impurity Dasatinib imp 2 (RT 5.2) ([2]; starting sample): 0.11%
- Impurity Dasatinib imp 3 (RT 18.9) ([2]; starting sample): 0.04%
- Impurity Deshydroxyethyl dasatinib (RT 11.0) ([2]; starting sample): 0.12%
- Impurity Ethylene-diamine intermedier (RT 9.0-9.3) ([2]; starting sample): 0.03%
- Impurity Summary (%) ([2]; starting sample): 0.38%
- Impurity, unnamed, RT 20.3 ([2]; starting sample): 0.08%
- stability in the storage tests (in words) ([2]; listed as dasatinib base monohydrate): most stable and suitable form disclosed in the prior art

Compound: Cc1nc(Nc2ncc(C(=O)Nc3c(C)cccc3Cl)s2)cc(N2CCN(CCO)CC2)n1 [dasatinib cyclamic acid (1:1) salt Form II] [N-(2-Chloro-6-methylphenyl)-2-[6-[4-(2-hydroxyethyl)piperazin-1-yl]-2-methylpyrimidin-4-ylamino]-1,3-thiazole-5-carboxamide]
- solubility ([1]; 0.1M HCl (pH 1)): 8862 µg/mL
- solubility ([1]; pH = 4.5 phosphate buffer): 4544 µg/mL
- Impurity Dasatinib N-oxyde (RT 12.2-12.4) ([2]; 3 week, 25° C./90% RH): 0.04%
- Impurity Deshydroxyethyl dasatinib (RT 11.0) ([2]; 3 week, 25° C./90% RH): 0.04%
- Impurity Ethylene-diamine intermedier (RT 9.0-9.3) ([2]; 3 week, 25° C./90% RH): 0.03%
- Impurity Summary (%) ([2]; 3 week, 25° C./90% RH): 0.11%
- Impurity Deshydroxyethyl dasatinib (RT 11.0) ([2]; 3 week, 40° C./70% RH): 0.04%
- Impurity Ethylene-diamine intermedier (RT 9.0-9.3) ([2]; 3 week, 40° C./70% RH): 0.03%
- Impurity Summary (%) ([2]; 3 week, 40° C./70% RH): 0.07%
- Impurity Deshydroxyethyl dasatinib (RT 11.0) ([2]; 6 week, 25° C./90% RH): 0.04%
- Impurity Ethylene-diamine intermedier (RT 9.0-9.3) ([2]; 6 week, 25° C./90% RH): 0.03%
- Impurity Summary (%) ([2]; 6 week, 25° C./90% RH): 0.07%
- Impurity Dasatinib N-oxyde (RT 12.2-12.4) ([2]; 6 week, 40° C./70% RH): 0.03%
- Impurity Deshydroxyethyl dasatinib (RT 11.0) ([2]; 6 week, 40° C./70% RH): 0.04%
- Impurity Ethylene-diamine intermedier (RT 9.0-9.3) ([2]; 6 week, 40° C./70% RH): 0.02%
- Impurity Summary (%) ([2]; 6 week, 40° C./70% RH): 0.09%
- Impurity Deshydroxyethyl dasatinib (RT 11.0) ([2]; starting sample): 0.04%
- Impurity Ethylene-diamine intermedier (RT 9.0-9.3) ([2]; starting sample): 0.03%
- Impurity Summary (%) ([2]; starting sample): 0.07%
- stability in the storage tests (in words) [2]: particularly stable

Compound: Cc1nc(Nc2ncc(C(=O)Nc3c(C)cccc3Cl)s2)cc(N2CCN(CCO)CC2)n1 [dasatinib cyclamic acid (1:1) salt Form I] [N-(2-Chloro-6-methylphenyl)-2-[6-[4-(2-hydroxyethyl)piperazin-1-yl]-2-methylpyrimidin-4-ylamino]-1,3-thiazole-5-carboxamide]
- solubility ([1]; 0.1M HCl (pH 1)): 8533 µg/mL
- solubility ([1]; pH = 4.5 phosphate buffer): 6194 µg/mL
- solubility ([1]; pH = 6.8 phosphate buffer): 5 µg/mL
- Impurity Dasatinib N-oxyde (RT 12.2-12.4) ([2]; 3 week, 25° C./90% RH): 0.03%
- Impurity Deshydroxyethyl dasatinib (RT 11.0) ([2]; 3 week, 25° C./90% RH): 0.03%
- Impurity Ethylene-diamine intermedier (RT 9.0-9.3) ([2]; 3 week, 25° C./90% RH): 0.02%
- Impurity Summary (%) ([2]; 3 week, 25° C./90% RH): 0.11%
- Impurity, unnamed, RT 15.5 ([2]; 3 week, 25° C./90% RH): 0.03%
- Impurity Dasatinib N-oxyde (RT 12.2-12.4) ([2]; 3 week, 40° C./70% RH): 0.03%
- Impurity Deshydroxyethyl dasatinib (RT 11.0) ([2]; 3 week, 40° C./70% RH): 0.03%
- Impurity Summary (%) ([2]; 3 week, 40° C./70% RH): 0.09%
- Impurity, unnamed, RT 15.5 ([2]; 3 week, 40° C./70% RH): 0.03%
- Impurity Dasatinib N-oxyde (RT 12.2-12.4) ([2]; 6 week, 25° C./90% RH): 0.03%
- Impurity Deshydroxyethyl dasatinib (RT 11.0) ([2]; 6 week, 25° C./90% RH): 0.03%
- Impurity Summary (%) ([2]; 6 week, 25° C./90% RH): 0.06%
- Impurity Dasatinib N-oxyde (RT 12.2-12.4) ([2]; 6 week, 40° C./70% RH): 0.03%
- Impurity Deshydroxyethyl dasatinib (RT 11.0) ([2]; 6 week, 40° C./70% RH): 0.03%
- Impurity Summary (%) ([2]; 6 week, 40° C./70% RH): 0.06%
- Impurity Dasatinib N-oxyde (RT 12.2-12.4) ([2]; starting sample): 0.03%
- Impurity Deshydroxyethyl dasatinib (RT 11.0) ([2]; starting sample): 0.03%
- Impurity Summary (%) ([2]; starting sample): 0.09%
- Impurity, unnamed, RT 15.5 ([2]; starting sample): 0.03%
- stability in the storage tests (in words) [2]: particularly stable

Compound: Cc1nc(Nc2ncc(C(=O)Nc3c(C)cccc3Cl)s2)cc(N2CCN(CCO)CC2)n1 [dasatinib hydrogen bromide (1:2) salt, N-(2-Chloro-6-methylphenyl)-2-[6-[4-(2-hydroxyethyl)piperazin-1-yl]-2-methylpyrimidin-4-ylamino]-1,3-thiazole-5-carboxamide]
- solubility ([1]; 0.1M HCl (pH 1)): 7994 µg/mL
- solubility ([1]; pH = 4.5 phosphate buffer): 1056 µg/mL

Compound: Cc1nc(Nc2ncc(C(=O)Nc3c(C)cccc3Cl)s2)cc(N2CCN(CCO)CC2)n1 [dasatinib mesilate (1:2), N-(2-Chloro-6-methylphenyl)-2-[6-[4-(2-hydroxyethyl)piperazin-1-yl]-2-methylpyrimidin-4-ylamino]-1,3-thiazole-5-carboxamide]
- solubility ([1]; pH = 4.5 phosphate buffer): 805 µg/mL
- solubility ([1]; pH = 6.8 phosphate buffer): 17 µg/mL

Compound: Cc1nc(Nc2ncc(C(=O)Nc3c(C)cccc3Cl)s2)cc(N2CCN(CCO)CC2)n1 [dasatinib tosilate (1:1) Form I anhydrate] [N-(2-Chloro-6-methylphenyl)-2-[6-[4-(2-hydroxyethyl)piperazin-1-yl]-2-methylpyrimidin-4-ylamino]-1,3-thiazole-5-carboxamide]
- solubility ([1]; 0.1M HCl (pH 1)): 5365 µg/mL
- solubility ([1]; pH = 4.5 phosphate buffer): 4510 µg/mL
- Impurity, unnamed, RT 15.5 ([2]; 3 week, 25° C./90% RH): 0.03%
- Impurity Summary (%) ([2]; 3 week, 25° C./90% RH, listed as Anhydrous dasatinib p-toluenesulfonic acid (1:1) salt Form I): 0.03%
- Impurity Ethylene-diamine intermedier (RT 9.0-9.3) [2, 3]: 0.03%
- Impurity Summary (%) [2, 3]: 0.03%
- Impurity, unnamed, RT 15.5 ([2]; starting sample): 0.03%
- Impurity Summary (%) ([2]; starting sample, listed as Anhydrous dasatinib p-toluenesulfonic acid (1:1) salt Form I): 0.03%
- stability in the storage tests (in words) ([2]; listed as anhydrous dasatinib p-toluenesulfonic acid (1:1) salt Form I): particularly stable

Compound: Cc1nc(Nc2ncc(C(=O)Nc3c(C)cccc3Cl)s2)cc(N2CCN(CCO)CC2)n1 [dasatinib tosilate (1:1) Form II anhydrate] [N-(2-Chloro-6-methylphenyl)-2-[6-[4-(2-hydroxyethyl)piperazin-1-yl]-2-methylpyrimidin-4-ylamino]-1,3-thiazole-5-carboxamide]
- solubility ([1]; 0.1M HCl (pH 1)): 5702 µg/mL
- solubility ([1]; pH = 4.5 phosphate buffer): 2805 µg/mL
- solubility ([1]; pH = 6.8 phosphate buffer): 11 µg/mL

Compound: Cc1nc(Nc2ncc(C(=O)Nc3c(C)cccc3Cl)s2)cc(N2CCN(CCO)CC2)n1 [dasatinib tosilate (1:1) dihydrate, N-(2-Chloro-6-methylphenyl)-2-[6-[4-(2-hydroxyethyl)piperazin-1-yl]-2-methylpyrimidin-4-ylamino]-1,3-thiazole-5-carboxamide]
- solubility ([1]; 0.1M HCl (pH 1)): 4898 µg/mL
- solubility ([1]; pH = 4.5 phosphate buffer): 1641 µg/mL
- solubility ([1]; pH = 6.8 phosphate buffer): 10 µg/mL
